The results in this text go back to patent US5856503A, “Aminoalkyl-substituted benzo-heterocyclic compounds” (Hoffmann-La Roche Inc., priority 1995, dated 1999).

Converted amounts (≈) assume the structure as drawn. Read-outs that look alike come from different tables or passages of the source. Some results are limits rather than exact numbers.

The subject of assay [1] is Candida albicans. The assay is described as follows: Antifungal activity in vitro, C. albicans (microdilution). It counts as cell-based. The conditions noted are these: 27° C. As to the method: (§1) Antifungal activity in vitro The compounds were tested for antifungal activity against Candida albicans, Cryptococcus neoformans and Aspergillus fumigatus using a microdilution method on microtitre plates (96 wells per plate). Yeast supplemented with 1% glucose and 0.25% di-potassium phosphate was used for the three fungal strains. The fungal cells were inoculated at 3×10^4 CFU (Colony Forming Unit) in […] of medium per well. The medium contained increasing concentrations of test substance. After incubation at 27° C. for 24 or 48 hours the turbidity in each well was measured by a microtitre plate reader. The growth inhibition was calculated in comparison to (without test substance). The IC50 value given in the following Table is the concentration of test substance at which the growth is inhibited by 50%.

The test system of assay [2] is Cryptococcus neoformans. The assay is described as follows: Antifungal activity in vitro, C. neoformans (microdilution). It counts as cell-based. The conditions noted are these: 48 hours, 27° C., read-out: IC50 for C. neoformans after 48 hours (growth inhibition). On the procedure: as §1
Assay [3] has as its system Aspergillus fumigatus. The assay is described as follows: Antifungal activity in vitro, A. fumigatus (microdilution). It counts as cell-based. The conditions noted are these: 48 hours, 27° C., read-out: IC50 for A. fumigatus after 48 hours (growth inhibition). On the procedure: as §1
In general terms: Dilution methods test growth across graded concentrations, often in twofold steps.

Assay [4] has as its target T1, human liver microsomal 2,3-oxidosqualene-lanosterol cyclase (OSC) (Homo sapiens, UniProt P48449).
T1 construct: Liver microsomes from a healthy volunteer were prepared in sodium phosphate buffer (pH 7.4); from tissue; host or cells: liver microsomes from a healthy human volunteer
T1 sequence (P48449 1-732): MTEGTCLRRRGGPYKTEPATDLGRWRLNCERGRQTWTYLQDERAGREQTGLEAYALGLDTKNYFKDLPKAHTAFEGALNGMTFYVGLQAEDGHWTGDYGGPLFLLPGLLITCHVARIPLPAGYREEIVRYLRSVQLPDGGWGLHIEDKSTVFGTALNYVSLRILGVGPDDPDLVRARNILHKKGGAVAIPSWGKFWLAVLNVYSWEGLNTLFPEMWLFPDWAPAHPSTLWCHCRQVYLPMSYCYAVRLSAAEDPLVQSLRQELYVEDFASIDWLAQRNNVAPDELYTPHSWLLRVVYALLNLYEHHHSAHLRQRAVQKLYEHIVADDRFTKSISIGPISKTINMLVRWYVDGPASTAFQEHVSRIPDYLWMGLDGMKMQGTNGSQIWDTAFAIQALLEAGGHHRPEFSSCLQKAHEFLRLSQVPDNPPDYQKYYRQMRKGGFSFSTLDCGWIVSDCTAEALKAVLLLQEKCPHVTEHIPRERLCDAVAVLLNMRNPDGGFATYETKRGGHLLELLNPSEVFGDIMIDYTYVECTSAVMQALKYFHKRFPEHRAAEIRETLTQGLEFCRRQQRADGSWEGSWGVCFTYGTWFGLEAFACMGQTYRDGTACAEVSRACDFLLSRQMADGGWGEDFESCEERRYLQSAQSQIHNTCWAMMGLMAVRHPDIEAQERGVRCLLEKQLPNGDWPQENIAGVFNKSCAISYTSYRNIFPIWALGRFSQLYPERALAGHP
The assay is described as follows: Inhibition of human liver microsomal 2,3-oxidosqualene-lanosterol cyclase (OSC). It counts as biochemical. The conditions noted are these: for inhibition at 0.1 µM: 100 nM test substance, 1 hour at 37° C., against controls; for IC50: pH 7.4, 1 hour at 37° C., read-out: IC50 (OSC, conversion of MOS into lanosterol). As to the method:
Inhibition of human liver microsomal 2,3-oxidosqualene-lanosterol cyclase (OSC)
Liver microsomes from a healthy volunteer were prepared in sodium phosphate buffer (pH 7.4). The OSC activity was measured in the same buffer which also contained 1 mM EDTA and 1 mM dithiothreitol. The microsomes were diluted to 0.8 mg/ml protein in cold phosphate buffer. Dry [^14 C]R,S-monooxidosqualene (MOS; 12.8 μCi/mmol) was diluted to 20 nCi/μl with ethanol and mixed with phosphate buffer-1% BSA (Bovine Serum Albumin). A stock solution of 1 mM test substance in DMSO was diluted to the desired concentration with phosphate buffer-1% BSA. 40 μl of microsomes were mixed with 20 μl of the solution of the test substance and the reaction was subsequently started with 20 μl of the [^14 C]R,S-MOS solution. The final conditions were: 0.4 mg/ml of microsomal proteins and […] of [^14 C]R,S-MOS in phosphate buffer, pH 7.4, containing 0.5% albumin, DMSO <0.1% and ethanol <2%, in a total volume of 80 μl.
After 1 hour at 37° C. the reaction was stopped by the addition of 0.6 ml of 10% KOH-methanol, 0.7 ml of water and 0.1 ml of hexane:ether (1:1, v/v) which contained 25 μg of non-radioactive MOS and 25 μg of lanosterol as the carrier. After shaking 1 ml of hexane:ether (1:1, v/v) was added to each test tube, these were again shaken and then centrifuged. The upper phase was transferred into a glass test tube, the lower phase was again extracted with hexane:ether and combined with the first extract. The entire extract was evaporated to dryness with nitrogen, the residue was suspended in 50 μl of hexane:ether and applied to a silica gel plate. Chromatographic separation was effected in hexane:ether (1:1, v/v) as the eluent. […] After drying radioactive MOS and lanosterol were observed on the silica gel plate. The ratio of MOS to lanosterol was determined from the radioactive bands in order to determine the OSC inhibition.
The test was carried out on the one hand with a constant test substance concentration of 100 nM and the percentage OSC inhibition against controls was calculated. In addition, the test was carried out with different test substance concentrations and subsequently the IC50 value was calculated, i.e. the concentration required to reduce the conversion of MOS into lanosterol to 50% of the control value.

Assay [5] in a line: Cholesterol lowering in fat-fed hamsters. It counts as in vivo, Male golden hamsters. The conditions noted are these: 200 μmol (about 70-120 mg/kg/day) in diet, 10 days. As to the method:
Cholesterol lowering in fat-fed hamsters
Male golden hamsters kept individually were pre-treated for 7 days with a diet containing grated coconut (40 cal. % fat). The animals were then divided into groups each comprising 5 animals. During the treatment the animals were maintained on the same diet. Each test substance was firstly homogenized in 9 ml of water and subsequently mixed with the milled diet. The controls received only feed converted into a paste with water. The animals were treated for 10 days with a test substance dosage of 200 μmol (about 70-120 mg/kg/day). Blood samples (200 μl) were removed via the jugular vein under light anaesthesia on the last day of the pretreatment and one day after the last administration of test substance. The plasma cholesterol concentration was determined using a colorimetric enzyme method. The plasma lipoproteins were separated by exclusion chromatography (Hennes et al., Science Tools, 36, 1992, 10-12). The total cholesterol was determined in each fraction using a fluorometric enzyme method (Gamble et al., J. Lipid Res., 19, 1978, 1068-1071) in order to calculate the amount of cholesterol in the LDL and HDL fractions. The activity on plasma cholesterol and LDL and HDL cholesterol, expressed in percent of the control animals, for the products of Examples 8a and 12 is reproduced in the following Table: […]

As a reminder, the IC50 is the midpoint of a concentration-inhibition curve. Consider `C=CCN(C)CCCCCCOc1ccc2c(c1)CCNC2c1ccc(Br)cc1` (racemic) [Example 21, (RS)-allyl-[6-[1-(4-bromo-phenyl)-1,2,3,4-tetrahydro-isoquinolin-6-yloxy]-hexyl]-methyl-amine], for which the IC50 is less than 0.32 µg/mL in assay [1] (24 hrs., read-out: IC50 for C. albicans after 24 hrs. (growth inhibition)); 1.3 µg/mL (≈ 2.84 µM) in assay [1] (48 hrs., read-out: IC50 for C. albicans after 48 hrs. (growth inhibition)); less than 0.32 µg/mL in assay [2]; 4.1 µg/mL (≈ 8.96 µM) in assay [3].
Broadly, the inhibition is the drop in the measured response relative to a control, in per cent. A higher inhibition goes with a response far below the control. With `CN(C[C@@H]1C[C@H]1COc1ccc2c(-c3ccc(Br)cc3)nccc2c1)C1CC1` (racemic) [Example 39, (1RS,2RS)-[2-[1-(4-Bromo-phenyl)-isoquinolin-6-yloxymethyl]-cyclopropylmethyl]-cyclopropyl-methyl-amine], in assay [4], the inhibition at 0.1 µM was determined as 83% and the IC50 turned out to be 3.6 nM.
The matching figures for `C=CCN(C)C/C=C/COc1ccc2c(-c3ccc(Br)cc3)nsc2c1` [Example 2a, (E)-allyl-[4-[3-(4-bromo-phenyl)-benzo[d]isothiazol-6-yloxy]-but-2-enyl]-methyl-amine]: 92% and 1.65 nM.
In turn, `CSCCN(C)CCCCCCOc1ccc2c(-c3ccc(Br)cc3)nsc2c1` [Example 2b] returned an inhibition at 0.1 µM in assay [4] of 32%.
For `C=CCN(C)CCCCCCOc1ccc2c(-c3ccc(Br)cc3)csc2c1` [Example 3, allyl-[6-[3-(4-bromo-phenyl)-benzo[b]thiophen-6-yloxy]-hexyl]methyl-amine], in assay [4], the inhibition at 0.1 µM stood at 99% and the IC50 was 4 nM.
In the case of `C=CCN(C)C/C=C/COc1ccc2c(CCC=C(C)C)nsc2c1` [Example 6, (E)-allyl-methyl-[4-[3-(4-methyl-pent-3-enyl)-benzo[d]isothiazol-6-yloxy]-but-2-enyl]-amine], in assay [4], the inhibition at 0.1 µM was 62%.
The molecule `C=CCN(C)C/C=C/COc1ccc2c(-c3ccc(Br)cc3)noc2c1` [Example 12] had an inhibition at 0.1 µM in assay [4] of 61%.
For the molecule `C=CCN(C)CCCCCCOc1ccc(-c2noc3cc(Br)ccc23)cc1` [Example 14], in assay [4], the inhibition at 0.1 µM stood at 30%.
Consider `C=CCN(C)CCCCCCOc1ccc2c(-c3ccc(Br)cc3)nccc2c1` [Example 23, allyl-[6-[1-(4-bromo-phenyl)-isoquinolin-6-yloxy]-hexyl]-methyl-amine], for which the inhibition at 0.1 µM in assay [4] was 99%. In assay [5], the “HDL cholesterol (plasma, percent of control animals)” value is on record as -2%; the “LDL cholesterol (plasma, percent of control animals)” value is -23%; the “Total cholesterol (plasma, percent of control animals)” value is -15%.
With `C=CCN(C)C/C=C/COc1ccc2c(c1)CCN=C2c1ccc(Br)cc1` [Example 26, (E)-allyl-[4-[1-(4-bromo-phenyl)-3,4-dihydro-isoquinolin-6-yloxy]-but-2-enyl]-methyl-amine], in assay [4], testing at 0.1 µM gave an inhibition of 95% and the IC50 came out at 2.1 nM.
The matching figures for `C=CCN(C)C/C=C/COc1ccc2c(c1)CON=C2c1ccc(Br)cc1` [Example 27, (E)-allyl-[4-[4-(4-bromo-phenyl)-1H-benzo[d][1,2]oxazin-7-yloxy]-but-2-enyl]-methyl-amine]: 96% and 3.7 nM.
Molecule `C=CCN(C)CCCCCCOc1ccc2c(-c3ccc(Br)cc3)nncc2c1` [Example 29, allyl-[6-[1-(4-bromo-phenyl)-phthalazin-6-yloxy]-hexyl]-methyl-amine] returned an inhibition at 0.1 µM in assay [4] of 85%.
Turning to `C=CCN(C)C/C=C/COc1cc2c(cc1F)c(-c1ccc(Br)cc1)nn2C` [Example 31, (E)-allyl-[4-[3-(4-bromo-phenyl)-5-fluoro-1-methyl-1H-indazol-6-yloxy]-but-2-enyl]-methyl-amine], in assay [4], testing at 0.1 µM gave an inhibition of 79% and the IC50 is 29 nM.
Regarding `C=CCN(C)CCCCCCOc1ccc2c(CCC=C(C)C)nn(C)c2c1` [Example 32e, allyl-methyl-[6-[1-methyl-3-(4-methyl-pent-3-enyl)-1H-indazol-6-yloxy]-hexyl]amine], the inhibition at 0.1 µM in assay [4] came out at 75%.
Still for that read-out and setting: the value for `C=CCN(C)C/C=C/COc1ccc2c(CCC=C(C)C)nn(C)c2c1` [Example 32h, (E)-allyl-methyl-[4-[1-methyl-3-(4-methyl-pent-3-enyl)-1H-indazol-6-yloxy]-but-2-enyl]-amine] was 54%.
Turning to `CN(CCCCCCOc1ccc2c(-c3ccc(Br)cc3)nn(C)c2c1)C1CC1` [Example 32i, [6-[3-(4-bromo-phenyl)-1-methyl-1H-indazol-6-yloxy]-hexyl]-cyclopropyl-methyl-amine], 0.1 µM produced 55% inhibition in assay [4].
In the case of `C=CCN(C)CCCCCCOc1ccc2c(-c3ccc(Br)cc3)n[nH]c2c1` [Example 32k, allyl-[6-[3-(4-bromo-phenyl)-1H-indazol-6-yloxy]-hexyl]-methyl-amine], in assay [4], testing at 0.1 µM gave an inhibition of 62%.
As to `C=CCN(C)CCCCCCOc1ccc2c(-c3ccc(Br)cc3)ncnc2c1` [Example 33, Allyl-[6-[4-(4-bromo-phenyl)-quinazolin-7-yloxy]-hexyl]-methyl-amine], in assay [4], the inhibition at 0.1 µM was 94% and the IC50 is 12.3 nM.
Taken in the same sequence, the figures for `C=CCN(C)CCCCCCOc1ccc2c(c1)OCC=C2c1ccc(Br)cc1` [Example 37, Allyl-[6-[4-(4-bromo-phenyl)-2H-chromen-7-yloxy]-hexyl]-methyl-amine] were 77% and 24 nM.
In the case of `C=CCN(C)CCCCCCOc1ccc2c(-c3ccc(Br)cc3)ccnc2c1` [Example 38, Allyl-[6-[4-(4-bromo-phenyl)-quinolin-7-yloxy]-hexyl]-methyl-amine], in assay [4], the inhibition at 0.1 µM came out at 84%.
